Structures can show the parent of a compound that is named as a salt.
Experiments:
ACAT [1] = test: Assay of ACAT inhibitory activity in a specimen prepared from rabbit liver; type: biochemical, New Zealand white rabbit; conditions: enzyme specimen from liver of cholesterol-fed rabbit, [1-14C]oleoyl-CoA
Protocol: 1. Assay of ACAT inhibitory activity in a specimen prepared from rabbit liver:
An enzyme specimen ACAT was prepared according to the method disclosed in the literature: J. Lipid. Research, 30, 681-690, 1989, from the liver of a New Zealand white rabbit, which had been fed with 1% cholesterol feed for one month. The ACAT activity was determined according to the method disclosed in the literature: J. Lipid Research, 24, 1127-1134, 1983, i.e., using radioactive [1-^14C]oleoyl-CoA and endogenous cholesterol contained in the liver microsome, and calculated from the radioactivity of the labeled cholesterol oleate.

ACAT [2] = biological target: T1, ACAT (Rattus norvegicus, UniProt O70536); test: Assay of ACAT inhibitory activity in a macrophage derived from rat peritoneal; type: cell-based; conditions: [9,10-3H]oleic acid
T1 construct: The rat peritoneal-derived macrophage was prepared; endogenous in cells; host or cells: rat peritoneal macrophages (primary)
T1 sequence (O70536 1-545): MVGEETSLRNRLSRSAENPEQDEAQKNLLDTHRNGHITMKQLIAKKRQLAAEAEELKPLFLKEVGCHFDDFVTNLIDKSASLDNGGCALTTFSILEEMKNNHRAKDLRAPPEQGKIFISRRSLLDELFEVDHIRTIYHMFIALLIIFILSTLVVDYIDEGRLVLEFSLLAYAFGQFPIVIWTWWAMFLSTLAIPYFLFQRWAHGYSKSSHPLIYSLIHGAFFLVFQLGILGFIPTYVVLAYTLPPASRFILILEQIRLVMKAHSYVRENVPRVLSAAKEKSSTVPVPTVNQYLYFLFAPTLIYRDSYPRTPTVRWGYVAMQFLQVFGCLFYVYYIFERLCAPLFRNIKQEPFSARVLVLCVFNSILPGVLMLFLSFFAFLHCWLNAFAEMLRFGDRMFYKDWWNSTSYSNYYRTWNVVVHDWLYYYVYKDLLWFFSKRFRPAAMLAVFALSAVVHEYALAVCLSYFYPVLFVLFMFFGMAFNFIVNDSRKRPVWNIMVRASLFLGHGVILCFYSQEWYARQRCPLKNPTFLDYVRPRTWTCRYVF
Protocol: 2. Assay of ACAT inhibitory activity in a macrophage derived from rat peritoneal:
The rat peritoneal-derived macrophage was prepared according to the method disclosed in the literature: Biochimica et Biophysica Acta, 1126, 73-80, 1992. The ACAT activity was determined by a modified method of the method disclosed in the above literature: Biochimica et Biophysica Acta, 1126, 73-80, 1992, i.e., using radioactive [9,10-^3H]oleic acid and exogenous cholesterol contained in the liposome which was re-constituted according to the method disclosed in the literature: Biochimica et Biophysica Acta, 1213, 127-134, 1994, and calculated from the radioactivity of the labeled cholesterolyl oleate.

Compound	inhibition at 1 µM (ACAT [2]; 10^−6 M, read-out: ACAT inhibitory rate (%) 10^−6 M)	ACAT inhibitory rate (%) 10^−6 M (ACAT [2])	melting point	ACAT inhibitory rate (%) 10^−6 M (ACAT [1])
CCCCn1c(=O)c(NC(=O)Nc2cc(CN3CCOCC3)ccc2C(C)(C)C)c(-c2cccc(OC)c2)c2cccnc21 [Example 1, N-[1-butyl-4-(3-methoxyphenyl)-1,2-dihydro-2-oxo-1,8-naphthyridin-3yl]-N′-[2-tert-butyl-5-(morpholinomethyl)phenyl]urea]	97%			98%
N-[1-butyl-4-(3-methoxyphenyl)-1,2-dihydro-2-oxo-1,8-naphthyridin-3-yl]-N′-[2-tert-butyl-5-(1-pyrazolylmethyl)phenyl]urea [Example 19]		73%		99%
CCCCn1c(=O)c(NC(=O)Nc2cc(CN(C)C)ccc2C(C)(C)C)c(-c2cccc(OC)c2)c2cccnc21 (as salt: hydrochloride) [Example 30]			174 to 175 °C	

Now from value to compound, other results behind:

inhibition at 1 µM (ACAT [2]; 10^−6 M, read-out: ACAT inhibitory rate (%) 10^−6 M)	ACAT inhibitory rate (%) 10^−6 M (ACAT [2])	melting point	Compound	ACAT inhibitory rate (%) 10^−6 M (ACAT [1])
		158 to 161 °C	CCCCn1c(=O)c(NC(=O)Nc2cc(CNCC)ccc2C(C)(C)C)c(-c2cccc(OC)c2)c2cccnc21 (as salt: hydrochloride) [Example 32]	
		163 to 165 °C	CCCCn1c(=O)c(NC(=O)Nc2cc(CNC)ccc2C(C)(C)C)c(-c2cccc(OC)c2)c2cccnc21 (as salt: hydrochloride) [Example 31]	

Source: patent US6420381B1, “Naphthyridine derivatives” (Sumitomo Pharmaceuticals Company, Limited, priority 1998, dated 2002)
